Patent US20150175681A1 (priority 2010, published 2015)

Tests used:
Type in all cases: in vivo
[1] = test system: C. difficile (ATCC 43596); conditions: Example 5C
[2] = test system: C. difficile (ATCC 43596 strain); conditions: Example 5B
[3] = test system: C. difficile (ATCC 43596, strain 545)
[4] = Example 5E, vancomycin 20 mg/kg
[5] = Example 5E, vancomycin 20 mg/kg BID × 5 days

CN[C@H](CC(C)C)C(=O)N[C@H]1C(=O)N[C@@H](CC(N)=O)C(=O)N[C@H]2C(=O)N[C@H]3C(=O)N[C@H](C(=O)N[C@H](C(=O)O)c4cc(O)cc(O)c4-c4cc3ccc4O)[C@H](O)c3ccc(c(Cl)c3)Oc3cc2cc(c3O[C@@H]2O[C@H](CO)[C@@H](O)[C@H](O)[C@H]2O[C@H]2C[C@](C)(N)[C@H](O)[C@H](C)O2)Oc2ccc(cc2Cl)[C@H]1O [Vancomycin]
% mortality ([1]; 40 days, vancomycin 20 mg/kg PO BID × 5 days, mAbs 50 mg/kg (combination 50, 50) IP Q2d × 4, 7 hamsters): 100% | number of hamster deaths, day of study 12 ([1]; doses as Table 4): 1 | number of hamster deaths, day of study 14 ([1]; doses as Table 4): 2 | number of hamster deaths, day of study 15 ([1]; doses as Table 4): 1 | number of hamster deaths, day of study 18 ([1]; doses as Table 4): 1 | number of hamster deaths, day of study 19 ([1]; doses as Table 4): 2 | % mortality ([2]; 37 days, vancomycin 20 mg/kg PO BID × 5 days, goat polyclonal Abs 1 mL/hamster, PA-38 + PA-41 50, 50 mg/kg, PA-39 + PA-41 50, 40 mg/kg IP Q2d × 4): 88% | number of hamster deaths, day of study 15 ([2]; doses as Table 2, 8 animals): 1 | number of hamster deaths, day of study 18 ([2]; doses as Table 2, 8 animals): 5 | number of hamster deaths, day of study 19 ([2]; doses as Table 2, 8 animals): 1 | mean body weights ([2]; first week after infection): declined significantly during the first week after infection | hamsters found dead between Days 15 and 19 ([2]; vancomycin 20 mg/kg BID Days 1-5): seven of eight | mean body weights over the study ([3]; Example 5E, to day 39): decreased during the first week post-infection and then rebounded | Day 40 Survival [3, 4]: 0% | Median Survival [3, 4]: 20 days | % mortality [3, 5]: 100% | number of hamster deaths, day of study 11 to 14 [3, 5]: 1 | number of hamster deaths, day of study 18 to 20 [3, 5]: 5 | number of hamster deaths, day of study 22 [3, 5]: 2 | cecal C. difficile, mean CFU ([3]; in vivo): 6.01±0.93 log10
